Patent publication EP4737449A1 (Changchun Genescience Pharmaceutical Co., Ltd., priority 2023, dated 2025)
Where a name gives a salt, the structure may show the parent alone. Read-outs that look alike come from different tables or passages of the source.

Columns and labels:
p53-Y220C mutant protein = molecular target: T1, p53-Y220C mutant protein (Homo sapiens, UniProt P04637, Y220C); experiment: In vitro DNA binding activity assay (TR-FRET); type: biochemical; settings: concentration required to increase the binding activity of protein to DNA by 50%
T1 construct: The recombinant Y220C p53 DBD protein with his-tag
How it was run: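 His-tagged Y220C p53 DBD was equilibrated with compound 60 min at room temperature, then biotin-DNA, anti-6His-Eu and streptavidin-d2 were added and incubated overnight in the dark. TR-FRET 665/615 nm ratio, background-corrected, was expressed as % activity versus vehicle; SC150 is the concentration raising DNA binding by 50%.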

NUGC-3 cells = experiment: NUGC-3 cell proliferation assay (CTG, 7 days); type: cell-based, human; settings: Homo sapiens, NUGC-3, 168 h
Protocol: The cells were cultured in strict accordance with ATCC requirements.
Cell culture medium: 1640 culture medium, 10% serum, 1% penicillin + streptomycin.
Culture conditions: 37°C, 95% air, 5% carbon dioxide.
Compounds (20 mM) were subjected to gradient dilution in DMSO: 10 gradients, 3-fold dilution, duplicate wells.
Positive and negative controls (100% dimethyl sulfoxide) were prepared.
The compounds that were gradient diluted with DMSO and positive and negative controls (1st and 2nd step), each 75 nL, were transferred to 384-well cell culture plates by Echo550.
The cells were washed twice with PBS, digested with trypsin, and centrifuged for cell counting.
The experiment can only be carried out when the cell viability is above 90%.
The cells were plated into 384-well cell culture plates, with 200 (NUGC-3) cells and 30 µL of culture medium per well.
The 384-well microplate was placed in a cell culture incubator for 7 days.
30 µL of CTG detection reagent was added to the 384-well microplate.
The 384-well microplate was incubated for 30 min at 37°C, 5% carbon dioxide in the dark.
The reading was performed by a multi-functional microplate reader Envision.
% Inhibition is calculated as follows: % Inhibition = 100−(Signalcmpd−SignalAve_BL)/(SignalAve_VC−SignalAve_BL)*100 [formula] • Signalcmpd: Average signal of the compound in the cell plate • Signalave_vc: Average signal of the negative control in the cell plate • Signalave_BL: Average signal of the blank wells in the cell plate
IC50 was calculated by fitting % inhibition and compound concentration logarithmically to a nonlinear regression (dose response - variable slope) using Graphpad 8.0. Table 2 IC50 of selected compounds in NUGC-3 cell proliferation assay

[1] = NUGC-3 cell proliferation, 7 days, CTG, read-out: IC50

Compound	SC150 (p53-Y220C mutant protein)	IC50 (NUGC-3 cells)	IC50 (NUGC-3 cells; [1])
CN1CC[C@@H](Nc2cccc3c(CC(F)(F)F)c(C#CCNC(=O)c4ccn(C5CC5)c4)nn23)[C@@H](F)C1 [Compound 280, 1-cycloproyl-N-[3-(7-{[(3S,4R)-3-fluoro-1-methylpiperidin-4-yl]amino}-3-(2,2,2-ethyl trifluoroacetate)pyrazolo[1,5-a]pyridin-2-yl)-prop-2-yn-1-yl]-1H-pyrrole-3-carboxamide]	16 nM	1060 nM	–
CN1CC[C@@H](Nc2cccc3c(CC(F)(F)F)c(C#CCNC(=O)c4cnn(CC5CCC5)c4N)nn23)[C@@H](F)C1 [Compound 284, 5-amino-1-(cyclobutylmethyl)-N-[3-(7-{[(3S,4R)-3-fluoro-1-methylpiperidin-4-yl]amino}-3-(2,2,2-trifluoroethyl)pyrazolo[1,5-a]pyridin-2-yl)prop-2-yn-1-yl]-1H-pyrazole-4-carboxamide]	12 nM	–	360 nM
CN1CC[C@@H](Nc2cccc3c(CC(F)(F)F)c(C#CCNC(=O)c4cnn(C(C)(C)C5CC5)c4N)nn23)[C@@H](F)C1 [Compound 290, 5-amino-1-(2-cyclopropylprop-2-yl)-N-[3-(7-{[(3S,4R)-3-fluoro-1-methylpiperidin-4-yl]amino}-3-(2,2,2-trifluoroethyl)pyrazolo[1,5-a]pyridin-2-yl)prop-2-yn-1-yl]-1H-pyrazole-4-carboxamide]	11 nM	–	355 nM
CC(C1CC1)n1ncc(C(=O)NCC#Cc2nn3c(N[C@@H]4CCN(C)C[C@@H]4F)cccc3c2CC(F)(F)F)c1N (stereo partly drawn) [Compound 291, 5-amino-1-(1-cyclopropylethyl)-N-[3-(7-{[(3S,4R)-3-fluoro-1-methylpiperidin-4-yl]amino}-3-(2,2,2-trifluoroethyl)pyrazolo[1,5-a]pyridin-2-yl)prop-2-yn-1-yl]-1H-pyrazole-4-carboxamide]	7 nM	–	249 nM
CN1CC[C@@H](Nc2cccc3c(CC(F)(F)F)c(C#CCNC(=O)c4cnn(CC5CC5)c4N)nn23)[C@@H](F)C1 [Compound 292]	8 nM	214 nM	–
CN1CC[C@@H](Nc2cccc3c(CC(F)(F)F)c(C#CCNC(=O)c4ccc(N)nc4)nn23)[C@@H](F)C1 [Compound 296, 6-amino-N-[3-(7-{[(3S,4R)-3-fluoro-1-methylpiperidin-4-yl]amino}-3-(2,2,2-trifluoroethyl)pyrazolo[1,5-a]pyridin-2-yl)prop-2-yn-1-yl]nicotinamide]	21 nM	–	1230 nM
COC(C)(C)Cn1ccc(C(=O)NCC#Cc2nn3c(N[C@@H]4CCN(C)C[C@@H]4F)cccc3c2CC(F)(F)F)c1 [Compound 300, N-[3-(7-{[(3S,4R)-3-fluoro-1-methylpiperidin-4-yl]amino}-3-(2,2,2-trifluoroethyl)pyrazolo[1,5-a]pyridin-2-yl)prop-2-yn-1-yl]-1-(2-methoxy-2-methylpropyl)-1H-pyrrole-3-carboxamide]	12 nM	–	411 nM
CN1CC[C@@H](Nc2cccc3c(CC(F)(F)F)c(C#CCNC(=O)c4ccn5c4COCC5)nn23)[C@@H](F)C1 [Compound 301, N-[3-(7-{[(3S,4R)-3-fluoro-1-methylpiperidin-4-yl]amino}-3-(2,2,2-trifluoroethyl)pyrazolo[1,5-a]pyridin-2-yl)prop-2-yn-1-yl]-3,4-dihydro-1H-pyrrolo[2,1-c][1,4]oxazine-8-carboxamide]	27 nM	–	1190 nM
CN1CC[C@@H](Nc2cccc3c(CC(F)(F)F)c(C#CCNC(=O)c4cnn(C5CC5)c4N)nn23)[C@@H](F)C1 [Compound 305, 5-amino-N-[3-(7-{[(3S,4R)-3-fluoro-1-methylpiperidin-4-yl]amino}-3-(2,2,2-trifluoroethyl)pyrazolo[1,5-a]pyridin-2-yl)prop-2-yn-1-yl]-1-(cyclopropyl)-1H-pyrazole-4-carboxamide]	7 nM	–	193 nM
CC(C)n1ncc(C(=O)NCC#Cc2nn3c(N[C@@H]4CCN(C)C[C@@H]4F)cccc3c2CC(F)(F)F)c1N [Compound 306, 5-amino-N-[3-(7-{[(3S,4R)-3-fluoro-1-methylpiperidin-4-yl]amino}-3-(2,2,2-trifluoroethyl)pyrazolo[1,5-a]pyridin-2-yl)prop-2-yn-1-yl]-1-isopropyl-1H-pyrazole-4-carboxamide]	6 nM	–	142 nM
[2H]C([2H])([2H])N1CC[C@@H](Nc2cccc3c(CC(F)(F)F)c(C#CCNC(=O)c4cnn(C(C)(C)C)c4N)nn23)[C@@H](F)C1 [Compound 311, 5-amino-1-(tert-butyl)-N-[3-(7-{[(3S,4R)-3-fluoro-1-(methyl-d3)piperidin-4-yl]amino}-3-(2,2,2-trifluoroethyl)pyrazolo[1,5-a]pyridin-2-yl)prop-2-yn-1-yl]-1H-pyrazole-4-carboxamide]	4 nM	–	173 nM
CN1CC[C@@H](Nc2cccc3c(CC(F)(F)F)c(C#CCNC(=O)c4cc(F)n(C)c4)nn23)[C@@H](F)C1 [Compound 312, 5-fluoro-N-[3-(7-{[(3S,4R)-3-fluoro-1-methylpiperidin-4-yl]amino}-3-(2,2,2-trifluoroethyl)pyrazolo[1,5-a]pyridin-2-yl)prop-2-yn-1-yl]-1-methyl-1H-pyrrole-3-carboxamide]	19 nM	–	1460 nM
CN1CC[C@@H](Nc2cccc3c(CC(F)(F)F)c(C#CCNC(=O)c4ccn(C5(C)CC5)c4)nn23)[C@@H](F)C1 [Compound 313, N-[3-(7-{[(3S,4R)-3-fluoro-1-methylpiperidin-4-yl]amino}-3-(2,2,2-trifluoroethyl)pyrazolo[1,5-a]pyridin-2-yl)prop-2-yn-1-yl]-1-(1-methylcyclopropyl)-1H-pyrrole-3-carboxamide]	28 nM	–	1370 nM
CN1CC[C@@H](Nc2cccc3c(CC(F)(F)F)c(C#CCNC(=O)c4ccc(N5CCC5)nc4)nn23)[C@@H](F)C1 [Compound 314, 6-(azetidin-1-yl)-N-[3-(7-{[(3S,4R)-3-fluoro-1-methylpiperidin-4-yl]amino}-3-(2,2,2-trifluoroethyl)pyrazolo[1,5-a]pyridin-2-yl)prop-2-yn-1-yl]-3-nicotinamide]	35 nM	–	1200 nM
CN1CC[C@@H](Nc2cccc3c(CC(F)(F)F)c(C#CCNC(=O)c4ccc(N5CCCC5)nc4)nn23)[C@@H](F)C1 [Compound 315, N-[3-(7-{[(3S,4R)-3-fluoro-1-methylpiperidin-4-yl]amino}-3-(2,2,2-trifluoroethyl)pyrazolo[1,5-a]pyridin-2-yl)prop-2-yn-1-yl]-6-(pyrrolidin-1-yl)nicotinamide]	52 nM	–	1240 nM
CN1CC[C@@H](Nc2cccc3c(CC(F)(F)F)c(C#CCNC(=O)c4ccc(N5CCCCC5)nc4)nn23)[C@@H](F)C1 [Compound 316, N-[3-(7-{[(3S,4R)-3-fluoro-1-methylpiperidin-4-yl]amino}-3-(2,2,2-trifluoroethyl)pyrazolo[1,5-a]pyridin-2-yl)prop-2-yn-1-yl]-6-(piperidin-1-yl)nicotinamide]	97 nM	–	2160 nM
Cc1cc(C(=O)NCC#Cc2nn3c(N[C@@H]4CCN(C)C[C@@H]4F)cccc3c2CC(F)(F)F)[nH]c1C [Compound 317, N-[3-(7-{[(3S,4R)-3-fluoro-1-methylpiperidin-4-yl]amino}-3-(2,2,2-trifluoroethyl)pyrazolo[1,5-a]pyridin-2-yl)prop-2-yn-1-yl]-4,5-dimethyl-1H-pyrrole-2-carboxamide]	44 nM	–	1290 nM
Cc1nc(C(=O)NCC#Cc2nn3c(N[C@@H]4CCN(C)C[C@@H]4F)cccc3c2CC(F)(F)F)cn1C [Compound 318, N-[3-(7-{[(3S,4R)-3-fluoro-1-methylpiperidin-4-yl]amino}-3-(2,2,2-trifluoroethyl)pyrazolo[1,5-a]pyridin-2-yl)prop-2-yn-1-yl]-1,2-dimethyl-1H-imidazole-4-carboxamide]	59 nM	–	1700 nM
CN1CC[C@@H](Nc2cccc3c(CC(F)(F)F)c(C#CCNC(=O)c4cn(C)cn4)nn23)[C@@H](F)C1 [Compound 319, N-[3-(7-{[(3S,4R)-3-fluoro-1-methylpiperidin-4-yl]amino}-3-(2,2,2-trifluoroethyl)pyrazolo[1,5-a]pyridin-2-yl)prop-2-yn-1-yl]-1-methyl-1H-imidazole-4-carboxamide]	41 nM	–	1370 nM
CC(C)n1cnc(C(=O)NCC#Cc2nn3c(N[C@@H]4CCN(C)C[C@@H]4F)cccc3c2CC(F)(F)F)c1 [Compound 320, N-[3-(7-{[(3S,4R)-3-fluoro-1-methylpiperidin-4-yl]amino}-3-(2,2,2-trifluoroethyl)pyrazolo[1,5-a]pyridin-2-yl)prop-2-yn-1-yl]-1-isopropyl-1H-imidazole-4-carboxamide]	28 nM	–	1560 nM
